Assay results from patent US7867980B2, “Lincosamide derivatives and antimicrobial agents comprising the same as active ingredient” (Meiji Seika Kaisha, Ltd., priority 2007, dated 2011).
In brackets after ≈: the same amount, converted by molar mass.

How the values were obtained:
Assay in all cases: Antimicrobial activity, minimum growth inhibitory concentration (MIC), agar dilution
Format in all cases: cell-based
S. pneumoniae 1700 = conditions: Sensitivity disk agar-N+5% horse blood, inoculum about 10^6 CFU/ml
Protocol: (§1) For representative compounds among lincomycin derivatives according to the present invention, the minimum growth inhibitory concentration (MIC, μg/ml) against various pneumococci was measured according to the method described in CHEMOTHERAPY, vol. […] Sensitivity disk agar-N+5% horse blood was used as the medium for the measurement. The amount of bacteria inoculated was about 10^6 CFU/ml.

S. pneumoniae 1820 = conditions: Sensitivity disk agar-N+5% horse blood, inoculum about 10^6 CFU/ml
Protocol: as §1

S. pneumoniae 1913 = conditions: Sensitivity disk agar-N+5% horse blood, inoculum about 10^6 CFU/ml
Protocol: as §1

S. pneumoniae 225 = conditions: Sensitivity disk agar-N+5% horse blood, inoculum about 10^6 CFU/ml
Protocol: as §1

S. pneumoniae DP1 TypeI = conditions: Sensitivity disk agar-N+5% horse blood, inoculum about 10^6 CFU/ml
Protocol: as §1

S. pneumoniae IP692 = conditions: Sensitivity disk agar-N+5% horse blood, inoculum about 10^6 CFU/ml
Protocol: as §1

S. pneumoniae PRC-206 = conditions: inoculum about 10^6 CFU/ml; for minimum growth inhibitory concentration (MIC): Sensitivity disk agar-N+5% horse blood
Protocol: as §1

S. pneumoniae PRC-53 = conditions: inoculum about 10^6 CFU/ml; for minimum growth inhibitory concentration (MIC): Sensitivity disk agar-N+5% horse blood
Protocol: as §1

S. pneumoniae TH-662 = conditions: inoculum about 10^6 CFU/ml; for minimum growth inhibitory concentration (MIC): Sensitivity disk agar-N+5% horse blood
Protocol: as §1

Structure (SMILES)	minimum growth inhibitory concentration (MIC) (S. pneumoniae 1700) [µg/mL]	minimum growth inhibitory concentration (MIC) (S. pneumoniae 1820) [µg/mL]	minimum growth inhibitory concentration (MIC) (S. pneumoniae 1913)	minimum growth inhibitory concentration (MIC) (S. pneumoniae 225) [µg/mL]	minimum growth inhibitory concentration (MIC) (S. pneumoniae DP1 TypeI)	minimum growth inhibitory concentration (MIC) (S. pneumoniae IP692)	minimum growth inhibitory concentration (MIC) (S. pneumoniae PRC-206) [µg/mL]	minimum growth inhibitory concentration (MIC) (S. pneumoniae PRC-53)	minimum growth inhibitory concentration (MIC) (S. pneumoniae TH-662) [µg/mL]	MIC (S. pneumoniae 1700; Streptococcus pneumoniae) [µg/mL]	MIC (S. pneumoniae 1820; Streptococcus pneumoniae) [µg/mL]	MIC (S. pneumoniae 1913; Streptococcus pneumoniae) [µg/mL]	MIC (S. pneumoniae 225; Streptococcus pneumoniae) [µg/mL]	MIC (S. pneumoniae DP1 TypeI; Streptococcus pneumoniae, DP1TYPEI) [µg/mL]	MIC (S. pneumoniae IP692; Streptococcus pneumoniae) [µg/mL]	MIC (S. pneumoniae PRC-206; Streptococcus pneumoniae, PRC206, Sensitivity disk agar-N+5% horse blood) [µg/mL]	MIC (S. pneumoniae PRC-53; Streptococcus pneumoniae, PRC53, Sensitivity disk agar-N+5% horse blood) [µg/mL]	MIC (S. pneumoniae TH-662; Streptococcus pneumoniae, TH662, Sensitivity disk agar-N+5% horse blood) [µg/mL]
CCC[C@@H]1C[C@@H](C(=O)N[C@@H]([C@H]2O[C@H](SC)[C@H](O)[C@@H](O)[C@H]2O)[C@H](C)Sc2ccc(-c3cncnc3)c(F)c2)N(C)C1 [Compound 3, 7-Deoxy-7-epi-7-(3-fluoro-4-(pyrimidin-5-yl)phenylthio)lincomycin]	2	2	≦0.008 μg/ml	8	0.015 µg/mL	0.03 µg/mL	2	≦0.008 μg/ml	0.25	–	–	–	–	–	–	–	–	–
CCCC1CC(C(=O)NC(C(C)Sc2ccc(-c3nc(C(=O)N(C)C)cs3)cc2)C2OC(SC)C(O)C(O)C2O)N(C)C1 (stereo not drawn) [Compound 17, 7-Deoxy-7-(4-(4-(dimethylcarbamoyl)-thiazol-2-yl)phenylthio)-7-epilincomycin]	2	4	0.03 µg/mL	32	0.03 µg/mL	0.03 µg/mL	4	0.015 µg/mL	2	–	–	–	–	–	–	–	–	–
CCC[C@@H]1CCN[C@H](C(=O)N[C@@H]([C@H]2O[C@H](SC)[C@H](O)[C@@H](O)[C@H]2O)[C@H](C)Sc2ccc(-c3cncnc3)cc2)C1 [Compound 59, Methyl 7-deoxy-7-epi-6-N-((2S,4R)-4-propyl)pipecoloyl-7-(4-(pyrimidin-5-yl)phenylthio)-1-thio-α-lincosamide]	0.13	0.25	0.015 µg/mL	1	≦0.008 μg/ml	≦0.008 μg/ml	0.25	≦0.008 μg/ml	0.13	–	–	–	–	–	–	–	–	–

The remaining lines, values ahead:

minimum growth inhibitory concentration (MIC) (S. pneumoniae 1700) [µg/mL]	minimum growth inhibitory concentration (MIC) (S. pneumoniae 1820) [µg/mL]	minimum growth inhibitory concentration (MIC) (S. pneumoniae 1913)	minimum growth inhibitory concentration (MIC) (S. pneumoniae 225) [µg/mL]	minimum growth inhibitory concentration (MIC) (S. pneumoniae DP1 TypeI)	minimum growth inhibitory concentration (MIC) (S. pneumoniae IP692)	minimum growth inhibitory concentration (MIC) (S. pneumoniae PRC-206) [µg/mL]	minimum growth inhibitory concentration (MIC) (S. pneumoniae PRC-53)	minimum growth inhibitory concentration (MIC) (S. pneumoniae TH-662) [µg/mL]	MIC (S. pneumoniae 1700; Streptococcus pneumoniae) [µg/mL]	MIC (S. pneumoniae 1820; Streptococcus pneumoniae) [µg/mL]	MIC (S. pneumoniae 1913; Streptococcus pneumoniae) [µg/mL]	MIC (S. pneumoniae 225; Streptococcus pneumoniae) [µg/mL]	MIC (S. pneumoniae DP1 TypeI; Streptococcus pneumoniae, DP1TYPEI) [µg/mL]	MIC (S. pneumoniae IP692; Streptococcus pneumoniae) [µg/mL]	MIC (S. pneumoniae PRC-206; Streptococcus pneumoniae, PRC206, Sensitivity disk agar-N+5% horse blood) [µg/mL]	MIC (S. pneumoniae PRC-53; Streptococcus pneumoniae, PRC53, Sensitivity disk agar-N+5% horse blood) [µg/mL]	MIC (S. pneumoniae TH-662; Streptococcus pneumoniae, TH662, Sensitivity disk agar-N+5% horse blood) [µg/mL]	Structure (SMILES)
–	–	–	–	–	–	–	–	–	2 (≈ 3.39 µM)	2 (≈ 3.39 µM)	0.015 (≈ 0.0254 µM)	4 (≈ 6.77 µM)	0.015 (≈ 0.0254 µM)	0.015 (≈ 0.0254 µM)	2 (≈ 3.39 µM)	≤ 0.008	0.5 (≈ 0.846 µM)	CCC[C@@H]1CCN(C)[C@H](C(=O)N[C@@H](C2OC(SC)C(O)C(O)C2O)[C@H](C)Sc2ccc(-c3cncnc3)cc2)C1 (stereo partly drawn) [Compound 65]
0.5	1	0.13 µg/mL	1	0.06 µg/mL	0.13 µg/mL	1	0.06 µg/mL	0.5	–	–	–	–	–	–	–	–	–	CS[C@H]1O[C@H]([C@H](NC(=O)[C@@H]2C[C@H](CC3CC3)CCN2)[C@H](C)Sc2ccc(C3C=CCN(C)C3)nc2)[C@H](O)[C@H](O)[C@H]1O (stereo partly drawn) [Compound 93, Methyl 6-N-((2S,4R)-4-cyclopropylmethyl)-pipecoloyl-7-deoxy-7-epi-7-(6-(1-methyl-1,2,3,6-tetrahydropyridin-3-yl)pyridin-3-ylthio)-1-thio-α-lincosamide]
